Experimental data from ChEMBL document CHEMBL5137044, “Expansion of the S-CN-DABO scaffold to exploit the impact on inhibitory activities against the non-nucleoside HIV-1 reverse transcriptase” (Eur J Med Chem, 2022).

Key:
[1] = Cytotoxicity against human MT4 cells assessed as cell growth inhibition incubated for 5 days by MTT assay; format: toxicity, cell-based; settings: time 5 day
[2] = test system: Human immunodeficiency virus 1; test: Antiviral activity against drug-resistant HIV-1 Y181C mutant infected in human MT4 cells assessed as reduction in virus-induced cytopathic effect incubated for 5 days by MTT assay; format: functional, organism-based; settings: Human immunodeficiency virus 1, Y181C mutant, MT4, 120 h
[3] = Fold resistance, ratio of EC50 for antiviral activity against drug-resistant HIV-1 E138K mutant infected in human MT4 cells to EC50 for antiviral activity against […] HIV-1 infected in human MT4 cells; format: functional
[4] = Fold resistance, ratio of EC50 for antiviral activity against drug-resistant HIV-1 Y188L mutant infected in human MT4 cells to EC50 for antiviral activity against […] HIV-1 infected in human MT4 cells; format: functional
[5] = target: Human immunodeficiency virus type 1 reverse transcriptase (Human immunodeficiency virus 1, UniProt Q72547); test: Inhibition of recombinant wild-type p66/p51 HIV-1 reverse transcriptase incubated for 40 mins by picogreen dye-based spectrofluorometric analysis
[6] = test system: Human immunodeficiency virus 1; test: Antiviral activity against drug-resistant HIV-1 E138K mutant infected in human MT4 cells assessed as reduction in virus-induced cytopathic effect incubated for 5 days by MTT assay; format: functional, organism-based; settings: Human immunodeficiency virus 1, E138K mutant, MT4, 120 h
[7] = Fold resistance, ratio of EC50 for antiviral activity against drug-resistant HIV-1 L100I mutant infected in human MT4 cells to EC50 for antiviral activity against […] HIV-1 infected in human MT4 cells; format: functional
[8] = test system: Human immunodeficiency virus 1; test: Antiviral activity against […] HIV-1 infected in human MT4 cells assessed as reduction in virus-induced cytopathic effect incubated for 5 days by MTT assay; format: functional, organism-based; settings: Human immunodeficiency virus 1, MT4, 120 h
[9] = Selectivity index, ratio of CC50 for human MT4 cells to EC50 for antiviral activity against NNRTI resistant HIV-1 infected in human MT4 cells; format: toxicity, cell-based; settings: read-out: Ratio CC50/EC50
[10] = Fold resistance, ratio of EC50 for antiviral activity against drug-resistant HIV-1 K103 N mutant infected in human MT4 cells to EC50 for antiviral activity against […] HIV-1 infected in human MT4 cells; format: functional
[11] = test system: Human immunodeficiency virus 1; test: Antiviral activity against drug-resistant HIV-1 Y188L mutant infected in human MT4 cells assessed as reduction in virus-induced cytopathic effect incubated for 5 days by MTT assay; format: functional, organism-based; settings: Human immunodeficiency virus 1, Y188L mutant, MT4, 120 h
[12] = test system: Human immunodeficiency virus 1; test: Antiviral activity against drug-resistant HIV-1 L100I mutant infected in human MT4 cells assessed as reduction in virus-induced cytopathic effect incubated for 5 days by MTT assay; format: functional, organism-based; settings: Human immunodeficiency virus 1, L100I mutant, MT4, 120 h
[13] = Fold resistance, ratio of EC50 for antiviral activity against drug-resistant HIV-1 Y181C mutant infected in human MT4 cells to EC50 for antiviral activity against […] HIV-1 infected in human MT4 cells; format: functional
[14] = test system: Human immunodeficiency virus 1; test: Antiviral activity against drug-resistant HIV-1 K103 N mutant infected in human MT4 cells assessed as reduction in virus-induced cytopathic effect incubated for 5 days by MTT assay; format: functional, organism-based; settings: Human immunodeficiency virus 1, K103 N mutant, MT4, 120 h

| SMILES | CC50 at 120 h [1] [µM] | EC50 [2] [µM] | Ratio EC50 [3] | Ratio EC50 [4] | IC50 [5] [µM] | EC50 [6] [µM] | Ratio EC50 [7] | EC50 [8] [µM] | selectivity ratio [9] | Ratio EC50 [10] | EC50 [11] [µM] | EC50 [12] [µM] | Ratio EC50 [13] | EC50 [14] [µM] |
| --- | --- | --- | --- | --- | --- | --- | --- | --- | --- | --- | --- | --- | --- | --- |
| Cc1c(C(C#N)c2c(Cl)cccc2Cl)nc(SC(C)C)[nH]c1=O (stereo not given) | 62.2 | 3.99 | 3 | >750 | 0.466 | 0.22 | 41 | 0.083 | 749 | >74 | > 62.2 | 3.38 | 48 | 6.13 |
| Cc1ccc(C(C#N)c2nc(SC(C)C)[nH]c(=O)c2C)cc1 (stereo not given) | 12.8 | > 12.9 | 2 | >40 | 0.667 | 0.63 | >40 | 0.32 | 40 | >40 | > 12.9 | > 12.9 | >40 | > 12.9 |
| Cc1c(C(C#N)c2ccc(C(C)C)cc2)nc(SC(C)C)[nH]c1=O (stereo not given) | 225 | 10.2 | 3 | >375 | 2.15 | 1.5 | 9 | 0.6 | 376 | >375 | > 225 | 5.51 | 17 | > 225 |
| Cc1c(C(C#N)c2ccc(F)cc2)nc(SC(C)C)[nH]c1=O (stereo not given) | 113 | > 113 | 3 | >28 | 14.3 | 12.6 | 16 | 3.98 | 28 | >28 | > 113 | 63.5 | >28 | > 113 |
| Cc1c(C(C#N)c2cccc(C(F)(F)F)c2)nc(SC(C)C)[nH]c1=O (stereo not given) | 69.2 | 9.98 | 3 | >65 | 2.71 | 2.71 | 11 | 1.06 | 65 | >57 | > 69.2 | 12.1 | 9 | > 60.4 |
| Cc1ccnc2c1NC(=O)c1cccnc1N2C1CC1 [NEVIRAPINE] |  | 7.71 |  |  |  | 0.198 |  | 0.17 |  |  | > 15 | 2.57 |  | 8.1 |
| Cc1cn([C@H]2C[C@H](N=[N+]=[N-])[C@@H](CO)O2)c(=O)[nH]c1=O [ZIDOVUDINE] |  | 0.0242 | 1 | 0.5 |  | 0.0268 | 0.4 | 0.0229 | > 309 | 1 | 0.0108 | 0.0084 | 1 | 0.0287 |
| Cc1c(C(C#N)c2cc(C(F)(F)F)cc(C(F)(F)F)c2)nc(SC(C)C)[nH]c1=O (stereo not given) | 287 | 186 | 8 | >10 | 55.1 | 224 | >10 | 27.4 |  | >10 | > 287 | > 278 | 7 | > 287 |
| Cc1c(C(C#N)c2ccc(-c3ccccc3)cc2)nc(SC(C)C)[nH]c1=O (stereo not given) | 30.5 |  |  |  |  |  |  | > 30.5 | < 1 |  |  |  |  |  |
| Cc1cc(C#N)cc(C)c1Oc1nc(Nc2ccc(C#N)cc2)nc(N)c1Br [ETRAVIRINE] | 4.6 | 0.0162 | 3 | 7 |  | 0.0092 | 4 |  | > 1620 | 1 |  | 0.0115 | 6 | 0.0034 |
